Measurements published in US20020077289A1, “Angiostatin and endostatin binding proteins and methods of use” (priority 2000, published 2002).
Read-outs that look alike come from different tables or passages of the source. One block for each molecule: values may come before it. Bridges are numbered along the chain shown (N, C = ends). Where no end group is shown, it is not given here.

Columns and labels:
[1] = target: T1, recombinant human Endostatin protein (Homo sapiens, UniProt P39060); assay: Phage display panning on Endostatin protein; format: binding
T1 construct: recombinant human Angiostatin protein, K1-4 protein, or recombinant human Endostatin protein were coated overnight; made in house; host or cells: Pichia pastoris
T1 sequence (P39060 1572-1754 limits assumed): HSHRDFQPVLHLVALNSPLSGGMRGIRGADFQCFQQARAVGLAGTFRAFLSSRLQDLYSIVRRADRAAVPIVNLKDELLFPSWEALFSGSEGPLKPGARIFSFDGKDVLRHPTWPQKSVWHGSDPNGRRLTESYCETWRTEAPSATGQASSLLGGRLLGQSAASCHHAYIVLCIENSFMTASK
Text: The Ph.D.-C7C, a disulfide constrained 7-mer phage-display library (New England BioLabs, Beverly, Mass.), was screened as recommended by the manufacturer. Following a third round of amplification individual phage were isolated and the peptide sequences deduced by DNA sequencing.
(§1) The Ph.D.-7 phage display library (New England BioLabs Cat #8100), a combinatorial library consisting of random peptide 7-mers, was screened for 7 amino acid binding peptides. The Ph.D.-7 phage display library consists of linear 7-mer peptides fused to the pIII coat protein of M13 via a Gly-Gly-Gly-Ser flexible linker. The library contains 2.8×10^9 independent clones. The Ph.D. library is useful for identifying targets requiring binding elements concentrated in a short stretch of amino acids.
The Ph.D.-C7C library (New England BioLabs Cat # 8120) is a combinatorial library consisting of random peptide 7-mers flanked by cysteine residues that under non-denaturing conditions are disulfide bonded resulting in the display of cyclized peptides. In non-reducing conditions, the cysteines form a disulfide bond resulting in each peptide being constrained in a disulfide loop. The library contains 3.7×10^9 independent clones that, like the Ph.D.-7 library, result in peptides fused to the pIII coat protein of M13 via a Gly-Gly-Gly-Ser flexible linker. […]

HUVEC microfilaments = assay: Fluorescent staining of formalin fixed endothelial cells with Alexa 488-labeled rhEndostatin; format: cell-based, human; conditions: 50-fold molar excess (100 μM) of peptide; 40 μg/ml (2 μM) Alexa-rhEndostatin
Description: (A), HUVECs, (B), HAECs and (C), HMVECs were incubated in the presence of 40 micrograms per milliliter (μg/ml) Alexa 488-labeled rhEndostatin and photographed at 100× magnification under Alexa 488 (green) excitation wavelength. (D) and (E), HUVECs were incubated simultaneously in anti-tropomyosin TM311 ascites fluid and 40 micrograms per milliliter (μg/ml) Alexa 488-labeled rhEndostatin followed by incubation in Alexa 594 conjugated goat anti-mouse IgG (H+L). The same field was photographed under Alexa 488 (green) and Alexa 594 (red) excitation wavelengths at 100× magnification.
HUVECs were incubated in the presence of 40 micrograms per milliliter (μg/ml) Alexa 488-labeled rhEndostatin alone (A), or in the presence of a 50-fold molar excess of control peptide (B), or E37 peptide (C). Cells were photographed using the same exposure times at 100x magnification under Alexa 488 (green) excitation wavelength.
To detect the binding of Alexa-labeled rhEndostatin 1×10^4 HUVEC, HMVEC and HAECs were plated on 1.5% gelatin coated Nalge Nunc Lab Tek II chamber slides (Naperville, Ill.) and fixed in 10% neutral buffered formalin followed by a methanol wash. The chamber slides were incubated in PBS/1% calf serum containing 40 μg/ml (2 μM) of Alexa 488-labeled rhEndostatin (Narum et al., manuscript in preparation) for 1 hr at room temperature. The slides were washed in PBS, coverslips mounted using fluorescent mounting media (Kirkegaard and Perry Laboratories, Gaithersburg, Md.) and cells photographed under Alexa 488 excitation wavelength. Co-localization studies were performed as above except cells were incubated in PBS/1% calf serum containing 1:200 mouse anti-tropomyosin TM311 (Sigma, St. Louis, Miss.) and 40 μg/ml of Alexa 488-labeled rhEndostatin followed by incubation with goat anti-mouse IgG (H+L) conjugated to Alexa 594 (Molecular Probes, Eugene, Oregon). The same fields were photographed under Alexa 488 and Alexa 594 wavelengths. […]

B16-BL6 melanoma cells = assay: B16-BL6 experimental metastasis assay; format: in vivo, C57BL/6J mice
Description: C57BL/6J mice were injected via the tail vein with 5×10^4 B16-BL6 melanoma cells on day 0. On day 3, groups of five mice received daily subcutaneous doses of either buffer control, 1.5 nmol (1.5 mg/kg/day) of rhEndostatin in combination with 0, 15, 75 or 375 nmol of control or E37 peptide, or control or E37 peptide alone for eleven days. All mice were sacrificed on day 14, and the number of pulmonary surface metastases in each animal counted. Error bars indicate standard deviation of the mean.
C57BL/6J mice (n=8) were injected intravenously (i.v.) with 5×10^4 B16-BL6 cells/mouse. Three days later treatment commenced. 100 μl of citrate-phosphate buffer (66 mM Sodium Phosphate, 17 mM Citric acid, 59 mM NaCl pH 6.2) containing 1.5 nmol of rhEndostatin and 100 μl of PBS containing either 0, 15, 75 or 375 nmol of control or E37 peptide were mixed and injected subcutaneously (s.c.) daily for 11 days. All mice were then sacrificed, their lungs removed and the number of surface metastases counted. Results were analyzed for statistical significance using the 2-tailed Student's t-test.
The following experiment was conducted to determine the interaction of E37 peptide and Endostatin protein. Briefly, the B16BL6 experimental metastasis assay, as known to those of skill in the art and further described in International Patent Application number PCT/US99/11418, was performed as follows. 5×10^4 B16-BL6 cells in 200 μl of PBS were injected into C57BL/6J mice via the tail vein. Three days post injection treatment was started. The injection received by eight groups of mice were: 1) citrate phosphate/PBS buffer, 2) ^30 μg Endostatin protein (in 100 μl PBS), 3) 30 μg Endostatin protein (in 200 μl PBS), 4) 30 μg Endostatin protein plus 50 times molar excess of control peptide (in 200 μl PBS), 5) 30 μg Endostatin protein plus 250 times molar excess of control peptide (in 200 μl PBS), 6) 30 μg Endostatin protein plus 10 times molar excess of E37 peptide (in 200 μl PBS), 7) 30 μg Endostatin protein plus 50 times molar excess of E37 peptide (in 200 μl PBS), and 8) 30 μg Endostatin protein plus 250 times molar excess of E37 peptide (in 200 μl PBS). Doses were administered daily for eleven days posterior to the thoracic cavity subcutaneously. All mice were sacrificed, the lungs removed and the number of surface metastases in each animal were counted under a stereo microscope.

[2] = tested on: recombinant human Angiostatin protein; assay: Phage display panning on Angiostatin protein; format: binding
Text: as §1
The Ph.D.-C7C library (New England BioLabs Cat # 8120) is a combinatorial library consisting of random peptide 7-mers flanked by cysteine residues that under non-denaturing conditions are disulfide bonded resulting in the display of cyclized peptides. In non-reducing conditions, the cysteines form a disulfide bond resulting in each peptide being constrained in a disulfide loop. The library contains 3.7×10^9 independent clones that, like the Ph.D.-7 library, result in peptides fused to the pIII coat protein of M13 via a Gly-Gly-Gly-Ser flexible linker. Constrained libraries are useful in the identification of structural epitopes. The Ph.D.-C7C library was screened for the binding of 7 amino acid cyclized binding peptides.
The phage display libraries were screened following the manufacturers' recommendations. […]

[3] = target: recombinant human tropomyosin isoform 3 (human); assay: SPR (BIAcore 3000), rhTM3 immobilized, steady state model

Sequence of recombinant human Angiostatin protein (P00747 103-352 limits assumed): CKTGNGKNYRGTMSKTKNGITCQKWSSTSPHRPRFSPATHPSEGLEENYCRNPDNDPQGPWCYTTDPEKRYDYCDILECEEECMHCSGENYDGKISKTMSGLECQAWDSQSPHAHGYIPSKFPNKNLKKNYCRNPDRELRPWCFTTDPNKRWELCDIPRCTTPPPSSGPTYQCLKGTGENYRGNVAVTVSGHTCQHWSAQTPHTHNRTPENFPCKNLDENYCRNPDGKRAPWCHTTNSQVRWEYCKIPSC

- binding to Endostatin protein (phage display selection) [1]: binds
- binding to Endostatin protein (phage display selection) ([1]; listed as E37): found to bind rhEndostatin
Molecule: CTHWWHKRCGGGS (disulfide 1-9 (inferred)) [E37 peptide]
- inhibition of binding of Alexa-labeled rhEndostatin to HUVEC microfilaments (HUVEC microfilaments): inhibited the binding of rhEndostatin to HUVEC microfilaments
- decrease in the anti-tumor activity of rhEndostatin (B16-BL6 melanoma cells; co-injection of 1.5 nmol rhEndostatin with 15 nmol E37 peptide): 11%
- decrease in the anti-tumor activity of rhEndostatin (B16-BL6 melanoma cells; co-injection of 1.5 nmol rhEndostatin with 75 nmol E37 peptide): 30.5%
- decrease in the anti-tumor activity of rhEndostatin (B16-BL6 melanoma cells; co-injection of 1.5 nmol rhEndostatin with 375 nmol E37 peptide): 84.5%
- number of metastatic lesions on the lungs versus control group (B16-BL6 melanoma cells; up to 375 nmol/day E37 peptide in the absence of rhEndostatin): not statistically different from that of the control group

- binding to Angiostatin protein (phage display selection) [2]: binds
Molecule: H A I Y P R H G G G S (HAIYPRHGGGS) [Peptide A10]

- Kd [3]: 100 µM
B1: recombinant human Endostatin protein (protein)
chain: HSHRDFQPVLHLVALNSPLSGGMRGIRGADFQCFQQARAVGLAGTFRAFLSSRLQDLYSIVRRADRAAVPIVNLKDELLFPSWEALFSGSEGPLKPGARIFSFDGKDVLRHPTWPQKSVWHGSDPNGRRLTESYCETWRTEAPSATGQASSLLGGRLLGQSAASCHHAYIVLCIENSFMTASK
modifications: Alexa Fluor 488 label in some experiments
